One experiment has as its system B. thailandensis. Briefly: microbe, parasite or virus in culture. The class given is cell-based, Burkholderia thailandensis. The following applies: for MIC90: Burkholderia thailandensis, read-out: MIC90 B. thailandensis.
Experiment [1] relates to resistant strains of A. baumannii and one strain of Acinetobacter sp. Briefly: MIC without and with sub-inhibitory polymyxin B, whole panel / MIC ranges (Example 4; also strains not listed separately). The class given is cell-based.
In the next experiment the test system is A. baumannii A387. Put plainly: MIC without and with sub-inhibitory polymyxin B (Example 4). The class given is cell-based, Acinetobacter baumannii. The note with it: A. baumannii A387, +0.06 μg/ml polymyxin B.
Experiment [2] concerns Acinetobacter spp. H064200250. Put plainly: MIC determination for Acinetobacter strains (Example 3). The note with it: LEV R, CIP R, MRP R, IMP I. Type of experiment: cell-based, Acinetobacter sp.
The subject of experiment [3] is 11 strains of A. baumannii and one strain of Acinetobacter sp. Briefly: Preliminary MBC without and with sub-inhibitory polymyxin B, whole panel (Example 4; also strains not listed separately). The class given is cell-based. The note with it: Acinetobacter baumannii, A. baumannii A14, without polymyxin B, 2nd experiment, read-out: MBC without PB.
Experiment [4] concerns Acinetobacter sp. (H064200250). Briefly: MIC without and with sub-inhibitory polymyxin B (Example 4). Type of experiment: cell-based. The following applies: Acinetobacter, without polymyxin B, read-out: MIC without PB.
A further experiment relates to A. baumannii A329. Described as above. Type of experiment: cell-based, Acinetobacter baumannii. The note with it: A. baumannii A329; +0.06 μg/ml polymyxin B; 2nd experiment; visual reading.
In the next experiment the test system is A. baumannii A472. The description is as above. The class given is cell-based, Acinetobacter baumannii. The following applies: A. baumannii A472; ratio MIC without PB to MIC + PB, PB […]; 2nd experiment.
Another experiment relates to A. baumannii A473. The description is as above. The class given is cell-based, Acinetobacter baumannii. The note with it: A. baumannii A473; +0.06 μg/ml polymyxin B; 2nd experiment; visual reading.
In experiment [5] the test system is A. baumannii ATCC 19606. Put plainly: Preliminary MBC without and with sub-inhibitory polymyxin B (Example 4). Type of experiment: cell-based, Acinetobacter baumannii. The following applies: Acinetobacter baumannii, ATCC19606, A. baumannii ATCC 19606, without polymyxin B, preliminary MBC, read-out: MBC without PB.
For experiment [6], the system named is Acinetobacter sp. (H064200250). The experiment is described as above. The class given is cell-based. The following applies: Acinetobacter, without polymyxin B, preliminary MBC, read-out: MBC without PB. The method, then: The plates were incubated for 18-20 hours at 37° C. The MBC was read as the lowest concentration at which colony growth was ca. 90% less than the positive control (i.e. usually where single colonies or no colonies were observed).

A further experiment has as its system B. thailandensis E264. Briefly: microbe, parasite or virus in culture. The following applies: Burkholderia thailandensis, E264, read-out: MIC B. thailandensis E264. Type of experiment: cell-based, Burkholderia thailandensis.
The subject of a further experiment is E. coli ATCC 25922. Briefly: MIC, selected panel of Gram-positive and Gram-negative strains (Example 5). The class given is cell-based, Escherichia coli. The following applies: Escherichia coli, ATCC25922, read-out: MIC E. coli ATCC 25922.
The test system of another experiment is P. aeruginosa ATCC 27853. Described as above. The class given is cell-based. The note with it: Pseudomonas aeruginosa, ATCC27853, read-out: MIC P. aeruginosa ATCC 27853.
Experiment [7] concerns A. baumannii ATCC 19606. Described as above. The note with it: Acinetobacter baumannii, ATCC19606, read-out: MIC A. baumannii ATCC 19606. Type of experiment: cell-based, Acinetobacter baumannii.
In a further experiment the test system is S. aureus ATCC 25923. The experiment is described as above. The class given is cell-based. The following applies: Staphylococcus aureus, ATCC25923, read-out: MIC S. aureus ATCC 25923.
The subject of experiment [8] is S. aureus ATCC 43300 (MRSA, FQ-S). Described as above. Type of experiment: cell-based, Staphylococcus aureus. The following applies: Staphylococcus aureus, read-out: MIC S. aureus ATCC 43300 (MRSA, FQ-S).
Experiment [9] deals with S. aureus BAA-1556 (USA300-Type MRSA, FQ-R). Described as above. The class given is cell-based, Staphylococcus aureus. The following applies: Staphylococcus aureus, read-out: MIC S. aureus BAA-1556 (USA300-Type MRSA, FQ-R).
[10] abbreviates: Acinetobacter spp. H064200250, 1st experiment.

≈ marks a conversion by molar mass, not a printed value. Like-named read-outs stand apart in the source and are kept apart here.

As for “8-[(3S)-3-aminocyclopentyl]-1- cyclopropyl-7-fluoro-9-methyl- 4-oxo-quinolizine-3-carboxylic acid [Compound 10]”, the “Dilutions improvement shift on B. thailandensis MIC90 (between pH 7 and pH 5)” value in the experiment with B. thailandensis (pH 7 versus pH 5) was “Yes, 2×”. Moreover, the “MIC without PB/MIC + PB” value in experiment [1] (A. baumannii A14, ratio, PB 0.06 μg/ml, 1st experiment) came out at 1. Further, the “MIC +0.06 μg/ml PB” value with A. baumannii A387 (1st experiment) turned out to be 0.5 µg/mL.
Regarding `NCC[C@H](O)C(=O)N[C@@H]1C[C@H](N)[C@@H](O[C@H]2O[C@H](CN)[C@@H](O)[C@H](O)[C@H]2O)[C@H](O)[C@H]1O[C@H]1O[C@H](CO)[C@@H](O)[C@H](N)[C@H]1O` [Amikacin, reference compound], the MIC stood at 16 µg/mL (≈ 27.3 µM) in [2]; 8 µg/mL (≈ 13.7 µM) in experiment [4] (Acinetobacter spp. H064200250 (OXA51), 2nd experiment, visual reading); 16 µg/mL (≈ 27.3 µM) in [4] (setting [10]). Also, in experiment [1], the “fold greater activity (fold lower MIC) in presence of polymyxin B compared to without polymyxin B” value is on record as “not significantly affected”. The “MIC +[…] PB” value in experiment [1] (A. baumannii NCTC 13301, +[…] polymyxin B, 2nd experiment, visual reading) was 128 µg/mL (≈ 219 µM). In addition, the MBC (as a rule, the smallest concentration meeting the test's criterion for killing) in [3] was 16 µg/mL (≈ 27.3 µM); in the experiment with A. baumannii ATCC 19606 [5] (2nd experiment), 16 µg/mL (≈ 27.3 µM); in the experiment on A. baumannii ATCC 19606 [5] (1st experiment) it was 16 µg/mL (≈ 27.3 µM); in [6] (Acinetobacter spp. H064200250 (OXA51), 2nd experiment), 8 µg/mL (≈ 13.7 µM); in [6] (setting [10]) it was 16 µg/mL (≈ 27.3 µM). Further, the “MIC +0.06 μg/ml PB” value with A. baumannii A329 was 128 µg/mL; in the experiment with A. baumannii A387 (2nd experiment, visual reading), 128 µg/mL; in the experiment with A. baumannii A473 it was 128 µg/mL. In addition, the MIC ratio without/with polymyxin B with A. baumannii A472 was at least 4 µg/mL.
As to `Cc1cc(-c2ccn3c(=O)c(C(=O)O)cc(C4CC4)c3c2C)c(Cl)cc1N` [Compound 11, 8-(2-chloro-4-amino-5-methyl-phenyl)-1-cyclopropyl-9-methyl-4-oxo-quinolizine-3-carboxylic acid], the MIC90 in the experiment with B. thailandensis was under 0.048 µg/mL.
For `Cc1c(-c2ccc(CN)o2)ccn2c(=O)c(C(=O)O)cc(C3CC3)c12` [Compound 12], the MIC90 in the experiment on B. thailandensis turned out to be 0.39 µg/mL (≈ 1.15 µM).
Still for that read-out and setting: next, `Cc1c(-c2ccc(CN)s2)ccn2c(=O)c(C(=O)O)cc(C3CC3)c12` [Compound 13]: 0.195 µg/mL (≈ 0.55 µM); `Cc1c(-c2ccc(C#N)cc2)ccn2c(=O)c(C(=O)O)cc(C3CC3)c12` [Compound 14, 8-(4-cyanophenyl)-1-cyclopropyl-9-methyl-4-oxo-quinolizine-3-carboxylic acid]: under 0.048 µg/mL.
On the same count and under the same terms, next, `Cc1ccc(-c2ccn3c(=O)c(C(=O)O)cc(C4CC4)c3c2C)cc1` [Compound 15, 8-(p-tolyl)-1-cyclopropyl-9-methyl-4-oxo-quinolizine-3-carboxylic acid]: under 0.048 µg/mL.
In the case of `Cc1c(-c2ccc3[nH]ncc3c2)c(F)cn2c(=O)c(C(=O)[O-])cc(C3CC3)c12.[K+]` [Compound 75K salt, potassium 8-(1H-indazol-5-yl)-1-cyclopropyl-7-fluoro-9-methyl-4-oxo-4H-quinolizine-3-carboxylate], the MIC in the experiment on B. thailandensis E264 was 0.25 µg/mL; with E. coli ATCC 25922, 0.032 µg/mL; in the experiment with P. aeruginosa ATCC 27853, 1 µg/mL; with A. baumannii ATCC 19606 [7], 0.064 µg/mL; with S. aureus ATCC 25923 it was at most 0.004 µg/mL; in experiment [8] it was at most 0.004 µg/mL. In addition, the MIC in experiment [9] was 0.032 µg/mL.
Consider `Cc1c(-c2ccc(N)c(CN)c2)ccn2c(=O)c(C(=O)[O-])cc(C3CC3)c12.[K+]` [Compound 76K salt, potassium 8-(4-amino-3-(aminomethyl)phenyl)-1-cyclopropyl-9-methyl-4-oxo-4H-quinolizine-3-carboxylate], for which the MIC in the experiment with B. thailandensis E264 is 2 µg/mL; with E. coli ATCC 25922, 0.032 µg/mL; in the experiment with P. aeruginosa ATCC 27853 it was 1 µg/mL; in the experiment on A. baumannii ATCC 19606 [7], 0.25 µg/mL; in the experiment with S. aureus ATCC 25923 it was 0.016 µg/mL; in experiment [8], 0.008 to 0.016 µg/mL. For the same compound, in [9], the MIC was found to be 0.25 µg/mL.
Regarding `Cc1c(-c2cccc3[nH]ncc23)ccn2c(=O)c(C(=O)[O-])cc(C3CC3)c12.[K+]` [Compound 82K salt, potassium 8-(1H-indazol-4-yl)-1-cyclopropyl-9-methyl-4-oxo-4H-quinolizine-3-carboxylate], the MIC in the experiment with B. thailandensis E264 is 4 µg/mL; with E. coli ATCC 25922, 0.125 to 0.25 µg/mL; in the experiment on P. aeruginosa ATCC 27853, 8 µg/mL; in the experiment with A. baumannii ATCC 19606 [7] it was 1 µg/mL; in the experiment with S. aureus ATCC 25923 it was 0.016 µg/mL; in [8], 0.016 µg/mL. The MIC in experiment [9] was determined as 1 µg/mL.
As for `Cc1c(-c2cnc3[nH]ccc3c2)ccn2c(=O)c(C(=O)[O-])cc(C3CC3)c12.[K+]` [Compound 85K salt, potassium 8-(1H-pyrrolo[2,3-b]pyridin-5-yl)-1-cyclopropyl-9-methyl-4-oxo-4H-quinolizine-3-carboxylate], the MIC with B. thailandensis E264 is 0.25 µg/mL; in the experiment with E. coli ATCC 25922, 0.032 µg/mL; in the experiment with P. aeruginosa ATCC 27853, 1 µg/mL; in the experiment with A. baumannii ATCC 19606 [7], 0.064 µg/mL; in the experiment on S. aureus ATCC 25923 it was at most 0.004 µg/mL; in experiment [8], at most 0.004 µg/mL. Moreover, the MIC in experiment [9] lay in the range of 0.064 to 0.125 µg/mL.

The values above are taken from patent US10155021B2, “Antimicrobial 4-oxoquinolizines” (Emergent Product Development Gaithersburg Inc., priority 2011, dated 2018).
